Source: ChEMBL document CHEMBL1124803, “Evolution of a series of peptidoleukotriene antagonists: synthesis and structure/activity relationships of 1,3,5-substituted indoles and indazoles” (J Med Chem, 1990)
Active and inactive are the calls of the source. The calls are words filed in the database; no cut-off is given here.

What was measured:
[1] = target: Cysteinyl leukotriene receptor 1 (Cavia porcellus); assay: Inhibition constant for displacement of [3H]LTD4 on guinea pig lung parenchymal membranes.
[2] = target: T1, Cysteinyl leukotriene receptor 1 (Cavia porcellus, UniProt Q2NNR5); assay: Inhibition constant for displacement of [3H]LTD4 on guinea pig lung parenchymal membranes.; type: tissue-based, Lung parenchyma
T1 sequence (Q2NNR5 whole entry): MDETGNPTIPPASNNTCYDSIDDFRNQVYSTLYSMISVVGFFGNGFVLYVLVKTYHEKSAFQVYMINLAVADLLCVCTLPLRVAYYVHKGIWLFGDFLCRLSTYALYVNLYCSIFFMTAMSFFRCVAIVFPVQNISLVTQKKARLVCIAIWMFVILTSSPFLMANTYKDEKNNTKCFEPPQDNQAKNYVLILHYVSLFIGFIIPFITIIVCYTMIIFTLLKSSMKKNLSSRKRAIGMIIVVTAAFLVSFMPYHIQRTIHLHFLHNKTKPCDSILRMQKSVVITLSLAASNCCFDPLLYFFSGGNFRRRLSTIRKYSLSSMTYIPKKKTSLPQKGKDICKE

Cavia porcellus [3] = assay: Percent protection of animals against aerosolized LTD4-induced dyspnea at the concentration of 0.6 mg/kg.; type: functional; conditions: inhaled or nasal
[4] = test system: Cysteinyl leukotriene receptor 1 (Cavia porcellus); assay: Dissociation constant (Kb) against LTD4
Cavia porcellus [5] = assay: Effective dose of compound was measured in vivo for blocking LTD4 induced dyspnea after po administration.; type: functional
[6] = target: T1, Cysteinyl leukotriene receptor 1; assay: Displacement of [3H]LTD4 on guinea pig lung parenchymal membranes; type: tissue-based, Lung parenchyma
Cavia porcellus [7] = organism: Cavia porcellus; assay: Inhibition of peptidoleukotriene LTE4 induced contraction of guinea pig tracheal spirals at the concentration of 3.3 uM.; type: functional; conditions: Trachea
Cavia porcellus [8] = organism: Cavia porcellus; assay: Inhibition of peptidoleukotriene LTE4 induced contraction of guinea pig tracheal spirals at the concentration of 3.3 uM; Not significant; type: functional; conditions: Trachea
Cavia porcellus [9] = organism: Cavia porcellus; assay: Inhibition of peptidoleukotriene LTE4 induced contraction of guinea pig tracheal spirals at the concentration of 100 uM.; type: functional; conditions: Trachea
Cavia porcellus [10] = organism: Cavia porcellus; assay: Inhibition of peptidoleukotriene LTE4 induced contraction of guinea pig tracheal spirals at the concentration of 1 uM.; type: functional; conditions: Trachea
Cavia porcellus [11] = assay: Percent protection of animals against aerosolized LTD4-induced dyspnea at the concentration of 1.8 mg/kg.; type: functional
Cavia porcellus [12] = assay: Percent protection of animals against aerosolized LTD4-induced dyspnea at the concentration of 0.6 mg/kg; Not significant; type: functional, organism-based; set-up: dose 0.6 mg/kg

Ki [1] [nM]	pKB [4]	SMILES	further results
84		CCCn1cc(Cc2ccc(C(=O)O)cc2OC)c2cc(NC(=O)CC3CCCC3)ccc21	
		COCCn1cc(Cc2ccc(C(=O)O)cc2OC)c2cc(NC(=O)OC3CCCC3)ccc21	Ki [2]: 41 nM
		CCCC(CC)C(=O)Nc1ccc2c(c1)c(Cc1ccc(C(=O)O)cc1OC)cn2C (stereo unspecified)	Ki [2]: 1830 nM
0.3		COc1cc(C(=O)NS(=O)(=O)c2ccccc2Cl)ccc1Cc1nn(C)c2ccc(NC(=O)CC3CCCC3)cc12	protection at 0.6 mg/kg (Cavia porcellus [3]): 48%
	8.44	CCCn1cc(Cc2ccc(C(=O)NS(=O)(=O)c3ccccc3)cc2OC)c2cc(NC(=O)OC3CCCC3)ccc21	ED50 (Cavia porcellus [5]): 1 mg/kg
	7.8	COc1cc(C(=O)O)ccc1Cn1ccc2ccc(NC(=O)OC3CCCC3)cc21	Ki [6]: 160 nM
		COc1cc(C(=O)NS(=O)(=O)c2ccccc2)ccc1Cc1cn(C)c2ccc(NC(=O)NC3CCCC3)cc12	ED50 (Cavia porcellus [5]): ~35 mg/kg; Ki [6]: 0.8 nM
		CCCc1c(OCCCCc2nnn[nH]2)ccc(C(C)=O)c1O [TOMELUKAST]	Ki [6]: 2820 nM
0.3		COc1cc(C(=O)NS(=O)(=O)c2ccccc2Cl)ccc1Cc1nn(C)c2ccc(NC(=O)OC3CCCC3)cc12	ED50 (Cavia porcellus [5]): 1 mg/kg
0.25		COc1cc(C(=O)NS(=O)(=O)c2ccccc2)ccc1Cc1nn(C)c2ccc(NC(=O)OC3CCCC3)cc12	
0.2	9.39	COCCn1cc(Cc2ccc(C(=O)NS(=O)(=O)c3ccccc3)cc2OC)c2cc(NC(=O)OC3CCCC3)ccc21	ED50 (Cavia porcellus [5]): 1.1 mg/kg
		COc1cc(C(=O)O)ccc1Cn1ncc2ccc(NC(=O)OC3CCCC3)cc21	Ki [6]: 80 nM
10	8.55	COc1cc(C(=O)O)ccc1Cc1cn(Cc2cccc(C#N)c2)c2ccc(NC(=O)CC3CCCC3)cc12	
		COc1cc(C(=O)O)ccc1Cn1ncc2ccc(NC(=O)CC3CCCC3)cc21	Ki [6]: 50 nM
5.6	9	COc1cc(C(=O)NS(C)(=O)=O)ccc1Cc1cn(Cc2cccc(C#N)c2)c2ccc(NC(=O)CC3CCCC3)cc12	
0.7	10.2	COc1cc(C(=O)NS(=O)(=O)c2ccccc2Cl)ccc1Cc1cn(C)c2ccc(NC(=O)NC3CCCC3)cc12	
		CCCCCC(=O)Nc1ccc2[nH]cc(Cc3ccc(C(=O)O)cc3OC)c2c1	inhibition at 3.3 µM (Cavia porcellus [7]): 64%
0.3		COc1cc(C(=O)NS(=O)(=O)c2ccccc2Br)ccc1Cc1nn(C)c2ccc(NC(=O)OC3CCCC3)cc12	ED50 (Cavia porcellus [5]): 1.1 mg/kg
0.3	9.85	COc1cc(C(=O)NS(=O)(=O)c2ccccc2Cl)ccc1Cc1cn(C)c2ccc(NC(=O)CC3CCCC3)cc12	
	7.68	COc1cc(C(=O)O)ccc1Cn1ccc2ccc(NC(=O)CC3CCCC3)cc21	Ki [6]: 200 nM
57		COc1cc(C(=O)O)ccc1Cc1cn(CC2CC2)c2ccc(NC(=O)OC3CCCC3)cc12	
	9.8	COc1cc(C(=O)NS(=O)(=O)c2ccccc2)ccc1Cc1cn(C)c2ccc(NC(=O)CC3CCCC3)cc12	ED50 (Cavia porcellus [5]): 1 mg/kg; Ki [6]: 0.3 nM
	9.69	COc1cc(C(=O)NS(=O)(=O)c2ccccc2C)ccc1Cc1c[nH]c2ccc(NC(=O)CC3CCCC3)cc12	ED50 (Cavia porcellus [5]): 1.3 mg/kg; Ki [6]: 1 nM
1.4	9.8	COc1cc(C(=O)NS(=O)(=O)c2ccccc2)ccc1Cc1c[nH]c2ccc(NC(=O)OC3CCCC3)cc12	
		CCCCCC(=O)Nc1ccc2c(c1)c(Cc1ccc(C(=O)O)cc1OC)cn2CC(=O)O	inhibition (Cavia porcellus [8]): inactive

Ki [1] [nM]	pKB [4]	SMILES	further results
0.3		COc1cc(C(=O)NS(=O)(=O)c2ccccc2C)ccc1Cc1nn(C)c2ccc(NC(=O)OC3CCCC3)cc12	ED50 (Cavia porcellus [5]): 0.5 mg/kg
0.5	10.1	COc1cc(C(=O)NS(=O)(=O)c2ccccc2Br)ccc1Cc1cn(C)c2ccc(NC(=O)CC3CCCC3)cc12	
	7.72	CCCn1cc(Cc2ccc(C(=O)O)cc2OC)c2cc(NC(=O)OC3CCCC3)ccc21	Ki [2]: 58 nM
		COc1cc(C(=O)O)ccc1Cc1cn(C)c2ccc(NC(=O)CC3CCCC3)cc12	inhibition at 100 µM (Cavia porcellus [9]): 94%; Ki [2]: 80 nM
0.1		COc1cc(C(=O)NS(=O)(=O)c2ccccc2Cl)ccc1Cc1nn(C)c2ccc(NC(=O)NC3CCC3)cc12	ED50 (Cavia porcellus [5]): 1 mg/kg
	9.64	COc1cc(C(=O)NS(=O)(=O)c2ccccc2C)ccc1Cc1cn(C)c2ccc(NC(=O)CC3CCCC3)cc12	ED50 (Cavia porcellus [5]): 0.2 mg/kg; Ki [6]: 0.5 nM
		COc1cc(C(=O)NS(=O)(=O)c2ccccc2C)ccc1Cc1cn(C)c2ccc(NC(=O)OC3CCCC3)cc12 [ZAFIRLUKAST]	ED50 (Cavia porcellus [5]): 0.3 mg/kg
67	7.84	COc1cc(C(=O)NS(=O)(=O)c2ccccc2)ccc1Cc1cn(C2CCCC2)c2ccc(NC(=O)OC3CCCC3)cc12	
132		COc1cc(C(=O)O)ccc1Cc1nn(C)c2ccc(NC(=O)CC3CCCC3)cc12	
53	7.67	COc1cc(C(=O)O)ccc1Cc1cn(C2CCCC2)c2ccc(NC(=O)OC3CCCC3)cc12	
		COc1cc(C(=O)O)ccc1Cc1nn(C)c2ccc(NC(=O)OC3CCCC3)cc12	Ki [6]: 160 nM
	9.2	CCCn1cc(Cc2ccc(C(=O)NS(=O)(=O)c3ccccc3)cc2OC)c2cc(NC(=O)NC3CCCC3)ccc21	Ki [6]: 0.5 nM
	7.32	COc1cc(C(=O)O)ccc1Cc1c[nH]c2ccc(NC(=O)OC3CCCC3)cc12	Ki [2]: 236 nM
		C=CCn1cc(Cc2ccc(C(=O)O)cc2OC)c2cc(NC(=O)CCCCC)ccc21	inhibition at 1 µM (Cavia porcellus [10]): 43%
6.8	9.28	COc1cc(C(=O)NS(=O)(=O)C(C)C)ccc1Cc1cn(Cc2cccc(C#N)c2)c2ccc(NC(=O)CC3CCCC3)cc12	
71		CCn1cc(Cc2ccc(C(=O)O)cc2OC)c2cc(NC(=O)CC3CCCC3)ccc21	
		CCCCCC(=O)Nc1ccc2c(c1)c(Cc1ccc(C(=O)O)cc1OC)cn2Cc1ccccc1	inhibition at 1 µM (Cavia porcellus [10]): 38%
	9.31	COc1cc(C(=O)NS(=O)(=O)c2ccccc2C)ccc1Cc1cn(C)c2ccc(NC(=O)NC3CCCC3)cc12	ED50 (Cavia porcellus [5]): 0.9 mg/kg; Ki [6]: 1.4 nM
		CCCCCC(=O)Nc1ccc2c(c1)c(Cc1ccc(C(=O)O)cc1OC)cn2C	inhibition at 1 µM (Cavia porcellus [10]): 77%; Ki [2]: 1900 nM
0.8	9.69	COc1cc(C(=O)NS(=O)(=O)c2ccccc2)ccc1Cc1cn(C)c2ccc(NC(=O)OC3CCCC3)cc12	ED50 (Cavia porcellus [5]): 2.5 mg/kg
0.3		COc1cc(C(=O)NS(=O)(=O)c2ccccc2C)ccc1Cc1nn(C)c2ccc(NC(=O)CC3CCCC3)cc12	protection at 0.6 mg/kg (Cavia porcellus [3]): 47%; protection at 1.8 mg/kg (Cavia porcellus [11]): 100%
70		COc1cc(C(=O)O)ccc1Cc1cn(Cc2ccccc2)c2ccc(NC(=O)CC3CCCC3)cc12	
	7.84	COc1cc(C(=O)O)ccc1Cc1cn(C)c2ccc(NC(=O)OC3CCCC3)cc12	inhibition at 100 µM (Cavia porcellus [9]): 75%; Ki [2]: 157 nM
0.25		COc1cc(C(=O)NS(=O)(=O)c2ccccc2Cl)ccc1Cc1nn(C)c2ccc(NC(=O)CC3CCCCC3)cc12	ED50 (Cavia porcellus [12]): inactive; protection at 1.8 mg/kg (Cavia porcellus [11]): 71%
		COc1cc(C(=O)O)ccc1Cc1cn(C)c2ccc(NC(=O)NC3CCCC3)cc12	Ki [2]: 1120 nM
